Source: PubChem BioAssay AID256 (DTP/NCI, 2004)
Where “and” joins values, the source holds several entries; their conditions need not be identical. Equal values may be shown once. Inconclusive results and toxic doses are left out.

System: CD2F1 mice, L1210 leukemia ip, survival T/C
Experiment: NCI In Vivo Anticancer Drug Screen. Data for tumor model L1210 Leukemia (intraperitoneal) in CD2F1 (CDF1) mice
Conditions: higher = longer survival
Method in brief: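 Tumor-bearing mice (transplanted tumor) were split into treated and vehicle control groups, and the measured endpoint of each treated group was divided by that of its vehicle controls.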

[1] = endpoint: mean survival time, dose: 100.0 mg/kg/injection, schedule: Q01DX009 (ip), vehicle: saline with Tween-80
[2] = endpoint: mean survival time, dose: 200.0 mg/kg/injection, schedule: Q01DX009 (ip), vehicle: saline with Tween-80
[3] = endpoint: mean survival time, dose: 400.0 mg/kg/injection, schedule: Q01DX009 (ip), vehicle: saline with Tween-80
[4] = endpoint: mean survival time, dose: 100.0 mg/kg/injection, schedule: Q01DX001 (ip), vehicle: saline
[5] = endpoint: mean survival time, dose: 200.0 mg/kg/injection, schedule: Q01DX001 (ip), vehicle: saline
[6] = endpoint: mean survival time, dose: 400.0 mg/kg/injection, schedule: Q01DX001 (ip), vehicle: saline
[7] = endpoint: mean survival time, dose: 100.0 mg/kg/injection, schedule: Q04DX002 (ip), vehicle: saline with Tween-80
[8] = endpoint: mean survival time, dose: 200.0 mg/kg/injection, schedule: Q04DX002 (ip), vehicle: saline with Tween-80
[9] = endpoint: mean survival time, dose: 400.0 mg/kg/injection, schedule: Q04DX002 (ip), vehicle: saline with Tween-80
[10] = endpoint: mean survival time, dose: 100.0 mg/kg/injection, schedule: Q04DX003 (ip), vehicle: saline with Tween-80
[11] = endpoint: mean survival time, dose: 200.0 mg/kg/injection, schedule: Q04DX003 (ip), vehicle: saline with Tween-80
[12] = endpoint: mean survival time, dose: 400.0 mg/kg/injection, schedule: Q04DX003 (ip), vehicle: saline with Tween-80
[13] = endpoint: mean survival time, dose: 25.0 mg/kg/injection, schedule: Q01DX001 (ip), vehicle: saline
[14] = endpoint: mean survival time, dose: 100.0 mg/kg/injection, schedule: Q01DX001 (ip), vehicle: Klucel (hydroxypropylcellulose) (HPC)
[15] = endpoint: mean survival time, dose: 200.0 mg/kg/injection, schedule: Q01DX001 (ip), vehicle: Klucel (hydroxypropylcellulose) (HPC)

In the case of `N#Cc1c(-c2ccccc2)c(-c2ccccc2)nn(CC(=O)O)c1=O`, the T/C (endpoint: median survival time, dose: 25.0 mg/kg/injection, schedule: Q01DX005 (ip), vehicle: distilled water + Tween-80) is reported as 105 % of control, the T/C (endpoint: median survival time, dose: 50.0 mg/kg/injection, schedule: Q01DX005 (ip), vehicle: distilled water + Tween-80) is reported as 90 % of control and the T/C (endpoint: median survival time, dose: 100.0 mg/kg/injection, schedule: Q01DX005 (ip), vehicle: distilled water + Tween-80) is reported as 95 % of control. The T/C (endpoint: median survival time, dose: 200.0 mg/kg/injection, schedule: Q01DX005 (ip), vehicle: distilled water + Tween-80) was 92 % of control.

`COc1ccc(OC)c2nc(-c3ccccc3)c(-c3ccccc3)nc12` was tested, and the T/C [1] was 98 % of control, the T/C [2] was 97 % of control and the T/C [3] was 104 % of control.

For `CCc1ccccc1OCC1CO1` (stereo not drawn), the T/C [4] was 102 % of control, the T/C [5] was 100 % of control and the T/C [6] was 102 % of control.

For `CC(C)C(C)c1ccccc1` (stereo not drawn), the T/C [4] was 100 % of control, the T/C [5] was 100 % of control and the T/C [6] was 98 % of control.

In the case of `Cc1ccc(Cl)cc1NC(=O)OCC(C)C`, the T/C [7] is reported as 90 % of control, the T/C [8] is reported as 93 % of control and the T/C [9] is reported as 90 % of control.

With `Nc1cc(OCc2ccccc2)c2n[nH]nc2n1` the T/C (endpoint: mean survival time, dose: 25.0 mg/kg/injection, schedule: Q01DX005 (ip), vehicle: other) was 96 % of control, the T/C (endpoint: mean survival time, dose: 50.0 mg/kg/injection, schedule: Q01DX005 (ip), vehicle: other) was 92 % of control and the T/C (endpoint: mean survival time, dose: 200.0 mg/kg/injection, schedule: Q01DX005 (ip), vehicle: other) was 94 % of control. For the same compound, the T/C (endpoint: mean survival time, dose: 400.0 mg/kg/injection, schedule: Q01DX005 (ip), vehicle: other) was 105 % of control.

With `Cc1ccc(S(=O)(=O)N(CC(=O)O)c2cccc(Cl)c2)cc1` the T/C (endpoint: mean survival time, dose: 100.0 mg/kg/injection, schedule: Q01DX009 (ip), vehicle: Klucel (hydroxypropylcellulose) (HPC)) was 101 % of control, the T/C (endpoint: mean survival time, dose: 200.0 mg/kg/injection, schedule: Q01DX009 (ip), vehicle: Klucel (hydroxypropylcellulose) (HPC)) was 98 % of control and the T/C (endpoint: mean survival time, dose: 400.0 mg/kg/injection, schedule: Q01DX009 (ip), vehicle: Klucel (hydroxypropylcellulose) (HPC)) was 100 % of control.

For `CC(O)(c1ccc(Cl)cc1)c1ccc(Cl)cc1`, the T/C [10] was 106 % of control, the T/C [11] was 101 % of control and the T/C [12] was 90 % of control.

With `COc1cc(C(C)=O)cc([N+](=O)[O-])c1O` the T/C (endpoint: mean survival time, dose: 50.0 mg/kg/injection, schedule: Q01DX009 (ip), vehicle: saline with Tween-80) was 102 % of control and the T/C [1] was 91 % of control.

For `OCC1OC(n2cnc3c2nnn2ccnc32)C(O)C1O` (stereo not drawn), the T/C (endpoint: mean survival time, dose: 100.0 mg/kg/injection, schedule: Q01DX009 (ip), vehicle: saline) was 112 % of control, the T/C (endpoint: mean survival time, dose: 200.0 mg/kg/injection, schedule: Q01DX009 (ip), vehicle: saline) was 106 % of control and the T/C (endpoint: mean survival time, dose: 400.0 mg/kg/injection, schedule: Q01DX009 (ip), vehicle: saline) was 115 % of control.

For `O=NN(CCCl)C(=O)NC1C(O)C(O)C(O)C(O)C1O` (stereo not drawn), the T/C (endpoint: mean survival time, dose: 13.0 mg/kg/injection, schedule: Q01DX001 (ip), vehicle: saline) was 167 % of control and 220 % of control, the T/C (endpoint: mean survival time, dose: 20.0 mg/kg/injection, schedule: Q01DX001 (ip), vehicle: saline) was 173 % of control and 227 % of control and the T/C [13] was 255 % of control. For the same compound, the T/C (endpoint: mean survival time, dose: 30.0 mg/kg/injection, schedule: Q01DX001 (ip), vehicle: saline) was 271 % of control and 282 % of control and the T/C (endpoint: mean survival time, dose: 44.0 mg/kg/injection, schedule: Q01DX001 (ip), vehicle: saline) was 197 % of control.

With `Brc1ccc2sc3ccccc3c2c1` the T/C [7] was 102 % of control, the T/C [8] was 89 % of control and the T/C [9] was 91 % of control.

`Cc1c([N+](=O)[O-])cc(C(C)(C)C)c(OC(=S)N(C)C)c1[N+](=O)[O-]` was tested, and the T/C (endpoint: mean survival time, dose: 6.25 mg/kg/injection, schedule: Q01DX009 (ip), vehicle: saline with Tween-80) was 93 % of control, the T/C (endpoint: mean survival time, dose: 12.5 mg/kg/injection, schedule: Q01DX009 (ip), vehicle: saline with Tween-80) was 95 % of control and the T/C (endpoint: mean survival time, dose: 25.0 mg/kg/injection, schedule: Q01DX009 (ip), vehicle: saline with Tween-80) was 89 % of control.

In the case of `CCOC(=O)CCC(NC(=O)c1ccc(N(Cc2ccccc2)Cc2cnc3nc(N)nc(N)c3n2)cc1)C(=O)OCC` (stereo not drawn), the T/C [14] is reported as 87 % of control, the T/C [15] is reported as 94 % of control and the T/C (endpoint: mean survival time, dose: 400.0 mg/kg/injection, schedule: Q01DX001 (ip), vehicle: Klucel (hydroxypropylcellulose) (HPC)) is reported as 97 % of control.

In the case of `c1coc(CNC2=NCCO2)c1`, the T/C (endpoint: mean survival time, dose: 100.0 mg/kg/injection, schedule: Q01DX001 (ip), vehicle: other) is reported as 95 % of control, the T/C (endpoint: mean survival time, dose: 200.0 mg/kg/injection, schedule: Q01DX001 (ip), vehicle: other) is reported as 103 % of control and the T/C (endpoint: mean survival time, dose: 400.0 mg/kg/injection, schedule: Q01DX001 (ip), vehicle: other) is reported as 90 % of control.

In the case of `CCN(CC)Cc1cc(Nc2cc(C)nc(/N=C(\N)Nc3cc(Cl)cc(Cl)c3)n2)ccc1O`, the T/C (endpoint: mean survival time, dose: 12.5 mg/kg/injection, schedule: Q01DX009 (ip), vehicle: Klucel (hydroxypropylcellulose) (HPC)) is reported as 93 % of control, the T/C (endpoint: mean survival time, dose: 25.0 mg/kg/injection, schedule: Q01DX009 (ip), vehicle: Klucel (hydroxypropylcellulose) (HPC)) is reported as 102 % of control and the T/C (endpoint: mean survival time, dose: 25.0 mg/kg/injection, schedule: Q04DX002 (ip), vehicle: saline with Tween-80) is reported as 97 % of control. The T/C (endpoint: mean survival time, dose: 50.0 mg/kg/injection, schedule: Q01DX009 (ip), vehicle: Klucel (hydroxypropylcellulose) (HPC)) was 105 % of control, the T/C (endpoint: mean survival time, dose: 50.0 mg/kg/injection, schedule: Q04DX002 (ip), vehicle: saline with Tween-80) was 94 % of control and the T/C [14] was 95 % of control. For the same compound, the T/C [7] was 94 % of control and the T/C [15] was 115 % of control.

`COc1ccc(/C=C(\C#N)C(=O)NCCc2ccc(OC)c(OC)c2)cc1OC` was tested, and the T/C [7] was 95 % of control, the T/C [8] was 95 % of control and the T/C [9] was 95 % of control.

For `O=C(NC/C=C/Br)Oc1cccc2ccccc12`, the T/C [7] was 101 % of control, the T/C [8] was 93 % of control and the T/C [9] was 101 % of control.

With `S=c1ssc(-c2ccccc2)c1-c1ccccc1` the T/C [1] was 97 % of control, the T/C [10] was 87 % of control and the T/C [2] was 100 % of control. The T/C [11] was 92 % of control, the T/C [3] was 106 % of control and the T/C [12] was 93 % of control.

With `C#CCOCCCC(=C)C` the T/C (endpoint: mean survival time, dose: 100.0 mg/kg/injection, schedule: Q01DX001 (ip), vehicle: acetone) was 98 % of control.

For `O=C(O)c1[nH]c2c([N+](=O)[O-])cc([N+](=O)[O-])cc2c1C(=O)O`, the T/C (endpoint: mean survival time, dose: 75.0 mg/kg/injection, schedule: Q01DX001 (ip), vehicle: saline) was 103 % of control and the T/C (endpoint: mean survival time, dose: 150.0 mg/kg/injection, schedule: Q01DX001 (ip), vehicle: saline) was 97 % of control.

For `CC1CC(C)(C)N=C(CCNCc2ccccc2)O1` (stereo not drawn), the T/C (endpoint: mean survival time, dose: 6.25 mg/kg/injection, schedule: Q01DX001 (ip), vehicle: saline) was 95 % of control, the T/C (endpoint: mean survival time, dose: 12.5 mg/kg/injection, schedule: Q01DX001 (ip), vehicle: saline) was 110 % of control and the T/C [13] was 103 % of control.

With `C=C(C)C1CNC(C(=O)O)C1CC(=O)O` (stereo not drawn) the T/C (endpoint: mean survival time, dose: 6.25 mg/kg/injection, schedule: Q04DX003 (ip), vehicle: saline sonified) was 97 % of control, the T/C (endpoint: mean survival time, dose: 12.5 mg/kg/injection, schedule: Q04DX003 (ip), vehicle: saline sonified) was 95 % of control and the T/C (endpoint: mean survival time, dose: 25.0 mg/kg/injection, schedule: Q04DX003 (ip), vehicle: saline sonified) was 109 % of control.

`O=C(c1ccc(Cl)cc1)c1no[n+]([O-])c1C(=O)c1ccc(Cl)cc1` was tested, and the T/C [1] was 94 % of control, the T/C [10] was 107 % of control and the T/C [2] was 100 % of control. The T/C [11] was 95 % of control, the T/C [3] was 94 % of control and the T/C [12] was 95 % of control.
